Data taken from patent US12454530B2, “Amido cyclohexane acid derivatives as LPA receptor inhibitors” (CHIESI FARMACEUTICI S.P.A., priority 2020, dated 2025).

Key:
[1] = biological target: human recombinant LPA1 expressed in CHO cells (Homo sapiens (Human), UniProt Q92633); test: LPA1 antagonist FLIPR calcium assay in CHO-hLPA1 cells; assay type: cell-based; details: range of activity; CHO-hLPA1, LPA EC80, Ca2+ mobilization; read-out: LPA1 IC50
Method: The effectiveness of compounds of the present invention as LPA1 antagonists can be determined at the human recombinant LPA1 expressed in CHO cells, using a FLIPR assay in 384 well format.
CHO-hLPA1 cell lines are cultured in a humidified incubator at 5% CO2 in DMEM/F-12 (1:1) MIXTURE with 2 mM Glutamax, supplemented with 10% of Foetal Bovine Serum, 1 mM Sodium Pyruvate, 11 mM Hepes and 1× Penicillin/Streptomycin. […] Serial dilutions (1:3 or 1:4, 11 points CRC) of compounds are performed in 100% DMSO at 200× the final concentration. […] The final concentration of DMSO in the assay will be 0.5% in each well. Medium is removed by aspiration and cells are then incubated with 30 μl of a loading solution containing 5 μM of the cytoplasmic Ca2+ indicator Cal-520 AM in Assay Buffer containing 2.5 mM probenecid for 30 min at 37° C. incubator (cell loading). The loaded cell plates are transferred into the FLIPR instrument and calcium responses are monitored during the on-line addition protocols. For testing of compounds, after the cell loading, 10 μl/well of 4× antagonists' solution was added onto the cells. After 30 min pre-incubation (at 37° C.), 10 μl/well of 5× concentrated LPA EC80 was added and Ca2+ mobilization responses was followed during the on-line addition protocol. Intracellular peak fluorescence values subtracted by baseline fluorescence are exported and analysed to determine IC50 values, respectively. The calcium response is expressed as percentage of the maximal inhibition of the EC80 agonist response.
The raw data (peak height expressed as relative fluorescence units) are normalized and transformed into “percent of inhibition”. Curve fitting and pIC50 (−LogIC50) estimations are carried out using a four-parameter logistic model using XLfit Software.

[2] = Permeability on Caco-2 cells monolayers; assay type: in vitro ADME; details: human, with Elacridar 10 µM (PgP inhibitor), Papp A>B with PgP inhibitor Elacridar, 10 μM compound, read-out: Passive Permeability
Method: Even more advantageously, the compounds of formula (I) of the present invention are also endowed with a good permeability profile that, in its turn, can ensure a suitable bioavailability for an oral administration. The permeability was assessed in human Caco 2 cell line, an in vitro model that mimic human gastrointestinal barrier and so useful to predic oral absorption.
The permeability of the compounds of the present invention was evaluated performing the assay on Caco-2 cells monolayers (human colon adenocarcinoma immortalized cell) by measuring the transport of compound (absorption and secretion) in both directions: apical to basolateral direction (A>B) and basolateral to apical (B>A) with and without PgP inhibitor (Elacridar).
The cells, purched from ReadyCell in 96 well format (Cod. KRECE-CCR50), were cultured by the supplier for 21 day on transwell supports in DMEM 1 g/L glucose culture medium supplemented with Fetal Bovin Sierum (10%), Glutamine 200 mM (1%) and Penicillin 10000 U/ml-10 mg/ml Streptomycin (1%).
On day 21 of colture, cell monolayers integrity was verified by measuring the trans-epithelial electric resistance (TEER) using the EVOM equipment (Endohm, WPI, Germany) and studying the apparent permeability (Papp) of reference compounds (Sulpiride and Metoprolol). Furthermore, as a control, the Talinolol 10 uM (Pgp efflux substrate) with and without Elacridar in both directions was used.
The sample solution was prepared dissolving test compound in DMSO at the concentration of 10 mM and then diluted in the Assay Buffer (Hank's Balance Salt Solution) warmed at 37° C. before use, to give the 10 μM Compound working solution with and without 10 μM Elacridar. These working solutions were added to donor compartment (apical for A>B direction and basolateral for B>A direction) and Assay Buffer (Hank's Balance Salt Solution) to the receiver compartment (basolateral for A>B direction and apical for B>A direction). The plate was incubated at 37° C. for 120 min, all incubation were conducted in triplicates. At the end of incubation, samples from donor and receiver compartments were collected for HPLC-MS/MS analyses.
The permeability coefficients (Papp) in both directions: apical to basolateral (A>B) and basolateral to apical (B>A) with and without PgP inhibitor (Elacridar) was calculated in nm/sec, using the following equation:
[formula] • where: • Cr=measured concentration in the receiver well at the time t (expressed as IS ratio) • Vr=volume of the receiver well (ml) • t=time (sec) • A=membrane surface area (cm^2) • C0=initial donor concentration • Passive Papp is considered Papp A>B with PgP inhibitor Elacridar.

[3] = biological target: BSEP (Homo sapiens (Human), UniProt O95342); test: BSEP inhibition: biliary clearance of Taurocolic Acid in sandwich-cultured human hepatocytes; assay type: in vitro ADME; details: sandwich-cultured cryopreserved human hepatocytes, probe Taurocolic Acid (TCA); 50 μM test compound, 10 μM TCA, human hepatocytes sandwich configuration
BSEP, sequence (O95342 whole entry): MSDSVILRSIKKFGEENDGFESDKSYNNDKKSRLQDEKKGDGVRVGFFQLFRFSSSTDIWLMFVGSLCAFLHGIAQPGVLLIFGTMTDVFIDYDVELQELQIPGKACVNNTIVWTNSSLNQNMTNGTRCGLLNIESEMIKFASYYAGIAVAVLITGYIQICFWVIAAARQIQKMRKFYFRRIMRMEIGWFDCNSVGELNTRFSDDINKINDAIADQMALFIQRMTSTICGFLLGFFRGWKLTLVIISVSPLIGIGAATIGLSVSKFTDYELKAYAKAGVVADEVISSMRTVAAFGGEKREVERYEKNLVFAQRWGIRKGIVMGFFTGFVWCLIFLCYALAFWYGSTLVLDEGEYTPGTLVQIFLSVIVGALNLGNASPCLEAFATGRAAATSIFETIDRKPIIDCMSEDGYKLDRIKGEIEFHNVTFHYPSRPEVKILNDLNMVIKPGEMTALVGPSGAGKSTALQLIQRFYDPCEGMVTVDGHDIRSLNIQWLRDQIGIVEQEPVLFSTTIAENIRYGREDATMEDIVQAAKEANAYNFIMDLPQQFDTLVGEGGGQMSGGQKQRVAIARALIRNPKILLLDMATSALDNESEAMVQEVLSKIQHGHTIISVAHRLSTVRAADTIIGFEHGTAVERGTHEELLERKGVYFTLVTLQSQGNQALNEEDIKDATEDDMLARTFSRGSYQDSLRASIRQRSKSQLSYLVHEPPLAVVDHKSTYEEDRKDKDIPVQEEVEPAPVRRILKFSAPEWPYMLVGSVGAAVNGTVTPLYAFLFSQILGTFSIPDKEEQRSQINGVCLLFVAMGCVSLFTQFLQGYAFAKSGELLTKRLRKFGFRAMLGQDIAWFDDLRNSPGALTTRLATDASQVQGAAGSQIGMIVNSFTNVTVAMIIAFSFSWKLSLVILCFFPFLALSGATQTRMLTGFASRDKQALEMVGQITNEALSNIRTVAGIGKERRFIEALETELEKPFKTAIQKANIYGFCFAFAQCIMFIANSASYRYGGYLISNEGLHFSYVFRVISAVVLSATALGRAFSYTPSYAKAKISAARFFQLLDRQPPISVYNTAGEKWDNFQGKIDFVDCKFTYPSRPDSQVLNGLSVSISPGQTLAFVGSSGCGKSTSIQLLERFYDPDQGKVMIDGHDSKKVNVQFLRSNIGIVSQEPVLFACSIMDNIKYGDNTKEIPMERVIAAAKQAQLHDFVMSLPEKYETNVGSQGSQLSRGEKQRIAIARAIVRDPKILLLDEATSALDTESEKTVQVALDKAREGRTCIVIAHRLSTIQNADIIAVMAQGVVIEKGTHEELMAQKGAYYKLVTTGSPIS
Method: BSEP inhibition was evaluated using human hepatocytes cultured between two layer of collagen (sandwich configuration). In this culture condition, hepatocytes express relevant transporters including BSEP and retain the bile canalicular structure. An inhibition of the biliary clearance of Taurocolic Acid (TCA), a known BSEP substrate, was used to assess BSEP interaction.
BSEP inhibition was evaluated using cryopreserved human hepatocytes (Plateable Cryopreserved Human Hepatocytes, BIOIVT) cultured for 5 day between two layer of collagen (sandwich configuration). In this culture condition, hepatocytes express relevant transporters including BSEP and retain the bile canalicular structure.
On day 5 of culture, hepatic cells are ready for the assay and the biliary clearance of Taurocolic Acid (TCA), a known BSEP substrate, can be estimated in presence and in absence of compound of interest.
The sample solution was prepared dissolving test compound and TCA in DMSO and then diluted in the Assay Buffer: Hank's Balance Salt Solution (HBSS+) warmed at 37° C. before use, to give the 10 μM TCA working solution with and without 50 μM of test compound. Hepatocytes were incubated for 10 minutes with these working solutions allowing TCA to be excreted into bile. At the end of incubation, the working solution was aspirated, and the content of the bile was collected through the addition of HBSS Modified without Ca2+/Mg2+(HBSS−). The presence of Ca2+ in the buffer is required to maintain the integrity of the tight junctions, the diffusional barrier between the canalicular lumen and extracellular space. Instead, incubation of cells in Ca2+-free buffer disrupts the tight junctions and opens the bile canalicular structures, allowing the bile content to be released and collect for HPLC-MS/MS analysis.
The in vitro biliary clearance of TCA incubated with and without test compounds is calculated according to the following formula:
where • Acc. Bile=(TCA amount in HBSS (−) buffer samples (pmol/mg protein)*Volume of each samples (mL))/Protein content per well (mg) • AUC=Incubation time (min)*T0 Concentration. T0 concentration is the initial TCA concentration in the medium.
The inhibition of BSEP was calculated as percentage of inhibition of TCA biliary clearance in presence of compound of interest, according to the following formula: BSEP inhibition %=100−(TCA ClBil with test compound*100)
TCA ClBil without test compound.

human recombinant LPA1 expressed in CHO cells, sequence (Q92633 whole entry): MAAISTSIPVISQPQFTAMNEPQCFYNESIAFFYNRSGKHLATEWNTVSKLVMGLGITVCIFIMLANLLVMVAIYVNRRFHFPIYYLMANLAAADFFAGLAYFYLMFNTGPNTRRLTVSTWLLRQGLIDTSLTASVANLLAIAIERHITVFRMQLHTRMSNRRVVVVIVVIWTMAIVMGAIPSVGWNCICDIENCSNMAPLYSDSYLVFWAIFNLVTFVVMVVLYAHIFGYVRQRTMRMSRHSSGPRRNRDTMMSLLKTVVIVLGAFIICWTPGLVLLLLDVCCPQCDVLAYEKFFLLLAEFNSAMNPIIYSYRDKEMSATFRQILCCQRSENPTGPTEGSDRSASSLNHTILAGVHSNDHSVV

For `Cc1noc(-c2ccc(NC(=O)C3CCCCC3C(=O)O)cn2)c1NC(=O)O[C@H](C)c1ccccc1` (stereo in doubt) [Example 40, Cis-2-((6-(3-methyl-4-((((R)-1-phenylethoxy)carbonyl)amino)isoxazol-5-y1)pyridin-3-yl)carbamoyl)cyclohexane-1-carboxylic acid], the IC50 [1] was 50 to 250 nM, the Papp at 120 min, 10 µM [2] was ≥ 1.5 ×10⁻⁶ cm/s and the inhibition at 10 min, 50 μM [3] was ≤ 50%.
With `Cc1nc(-c2onc(C)c2NC(=O)O[C@H](C)c2ccccc2F)ccc1NC(=O)[C@H]1CCCC[C@@H]1C(=O)O` [Example 24, (1S,2S)-2-((6-(4-((((R)-1-(2-fluorophenyl)ethoxy)carbonyl)amino)-3-methylisoxazol-5-yl)-2-methylpyridin-3-yl)carbamoyl)cyclohexane-1-carboxylic acid] the IC50 [1] was < 50 nM, the Papp at 120 min, 10 µM [2] was ≥ 1.5 ×10⁻⁶ cm/s and the inhibition at 10 min, 50 μM [3] was ≤ 50%.
In the case of `Cc1nc(-c2onc(C)c2NC(=O)O[C@H](C)c2ccccc2C(F)(F)F)ccc1NC(=O)[C@H]1CCCC[C@@H]1C(=O)O` [Example 25, (1S,2S)-2-((2-methyl-6-(3-methyl-4-((((R)-1-(2-(trifluoromethyl)phenyl)ethoxy)carbonyl)amino)isoxazol-5-yl)pyridin-3-yl)carbamoy1)cyclohexane-1-carboxylic acid], the IC50 [1] is reported as 50 to 250 nM, the Papp at 120 min, 10 µM [2] is reported as ≥ 1.5 ×10⁻⁶ cm/s and the inhibition at 10 min, 50 μM [3] is reported as ≤ 50%.
In the case of `C[C@@H](OC(=O)Nc1ccsc1-c1ccc(NC(=O)C2CCCCC2C(=O)O)cc1)c1ccccc1Cl` (single isomer, unassigned) [Example 7], the IC50 [1] is reported as < 50 nM, the Papp at 120 min, 10 µM [2] is reported as ≥ 1.5 ×10⁻⁶ cm/s and the inhibition at 10 min, 50 μM [3] is reported as ≤ 50%.
For `CCC[C@@H](C)OC(=O)Nc1c(C)noc1-c1ccc(NC(=O)[C@H]2CCCC[C@@H]2C(=O)O)c(C)n1` [Example 49, (1S,2S)-2-((2-methyl-6-(3-methyl-4-(((((R)-pentan-2-yl)oxy)carbonyl)amino)isoxazol-5-yl)pyridin-3-yl)carbamoyl)cyclohexane-1-carboxylic acid], the Papp at 120 min, 10 µM [2] was ≥ 1.5 ×10⁻⁶ cm/s and the inhibition at 10 min, 50 μM [3] was ≤ 50%.
For `Cc1nc(-c2onc(C)c2NC(=O)O[C@H](C)c2ccccc2)ccc1NC(=O)C1CCCCC1C(=O)O` (stereo partly drawn) [Example 39, Cis-2-((2-methyl-6-(3-methyl-4-((((R)-1-phenylethoxy)carbonyl)amino)isoxazol-5-yl)pyridin-3-yl)carbamoyl)cyclohexane-1-carboxylic acid], the Papp at 120 min, 10 µM [2] was ≥ 1.5 ×10⁻⁶ cm/s and the inhibition at 10 min, 50 μM [3] was ≤ 50%.
With `Cc1nc(-c2onc(C)c2NC(=O)O[C@H](C)c2ccccc2Cl)ccc1NC(=O)[C@H]1CCCC[C@@H]1C(=O)O` [Example 1, (1S,2S)-2-((6-(4-((((R)-1-(2-chlorophenyl)ethoxy)carbonyl)amino)-3-methylisoxazol-5-yl)-2-methylpyridin-3-yl)carbamoyl)cyclohexane-1-carboxylic acid] the Papp at 120 min, 10 µM [2] was ≥ 1.5 ×10⁻⁶ cm/s and the inhibition at 10 min, 50 μM [3] was ≤ 50%.
For `Cc1nc(-c2cnn(C)c2NC(=O)O[C@H](C)c2ccccc2Cl)ccc1NC(=O)[C@H]1CCCC[C@@H]1C(=O)O` (stereo in doubt) [Example 2, (1S,2S)-2-((6-(5-((((R)-1-(2-chlorophenyl)ethoxy)carbony1)amino)-1-methyl-1H-pyrazol-4-yl)-2-methylpyridin-3-y1)carbamoyl)cyclohexane-1-carboxylic acid], the Papp at 120 min, 10 µM [2] was ≥ 1.5 ×10⁻⁶ cm/s and the inhibition at 10 min, 50 μM [3] was ≤ 50%.
For `Cc1nc(-c2onc(C)c2NC(=O)O[C@H](C)c2ccccc2Cl)ccc1NC(=O)[C@@H]1CCCC[C@H]1C(=O)O` [Example 12, (1R,2R)-2-((6-(4-((((R)-1-(2-chlorophenyl)ethoxy)carbonyl)amino)-3-methylisoxazol-5-yl)-2-methylpyridin-3-yl)carbamoyl)cyclohexane-1-carboxylic acid], the Papp at 120 min, 10 µM [2] was ≥ 1.5 ×10⁻⁶ cm/s and the inhibition at 10 min, 50 μM [3] was ≤ 50%.
For `Cc1noc(-c2ccc(NC(=O)[C@H]3CCCC[C@@H]3C(=O)O)cn2)c1NC(=O)O[C@H](C)c1ccccc1Cl` [Example 16, (1S,2S)-2-((6-(4-((((R)-1-(2-chlorophenyl)ethoxy)carbonyl)amino)-3-methylisoxazol-5-yl)pyridin-3-yl)carbamoyl)cyclohexane-1-carboxylic acid], the Papp at 120 min, 10 µM [2] was ≥ 1.5 ×10⁻⁶ cm/s and the inhibition at 10 min, 50 μM [3] was ≤ 50%.
For `Cc1nc(-c2onc(C)c2NC(=O)O[C@H](C)c2ccccc2Br)ccc1NC(=O)[C@H]1CCCC[C@@H]1C(=O)O` [Example 28, (1S,2S)-2-((6-(4-((((R)-1-(2-bromophenyl)ethoxy)carbonyl)amino)-3-methylisoxazol-5-yl)-2-methylpyridin-3-yl)carbamoyl)cyclohexane-1-carboxylic acid], the IC50 [1] was < 50 nM and the Papp at 120 min, 10 µM [2] was ≥ 1.5 ×10⁻⁶ cm/s.
For `Cc1nc(-c2onc(C)c2NC(=O)O[C@H](C)c2ccccc2)ccc1NC(=O)[C@H]1CCCC[C@@H]1C(=O)O` [Example 27, (1S,2S)-2-((2-methyl-6-(3-methyl-4-((((R)-1-phenylethoxy)carbonyl)amino)isoxazol-5-yl)pyridin-3-yl)carbamoy1)cyclohexane-1-carboxylic acid], the Papp at 120 min, 10 µM [2] was ≥ 1.5 ×10⁻⁶ cm/s and the inhibition at 10 min, 50 μM [3] was ≤ 50%.
For `Cc1noc(-c2ccc(NC(=O)[C@H]3CCCC[C@@H]3C(=O)O)cc2)c1NC(=O)O[C@H](C)c1ccccc1Cl` [comparative Example A, (1S,2S)-2-({4-[3-methyl-4-({[(1R)-1-(2-chlorophenyl)ethoxy]carbonyl}amino)-1,2-oxazol-5-yl]phenyl}carbamoyl)cyclohexane-1-carboxylic acid, reference compound], the Papp at 120 min, 10 µM [2] was < 1.5 ×10⁻⁶ cm/s and the inhibition at 10 min, 50 μM [3] was > 70%.
